Results from US9957209B2, “Use of quinone methides as antipolymerants for vinylic monomers” (Ecolab USA Inc., priority 2015, dated 2018).

Assay: Static antipolymerant screening: polystyrene formed in heated, inhibitor-free styrene (ASTM D2121 methanol precipitation, absorbance at 420 nm)
Conditions: 0.33 mmolal antipolymerant in styrene, 122° C., anaerobic
Protocol: The antipolymerant performance of the isolated cinnamyl quinone methide, 2,6-di-tert-butyl-4-(3-phenylallylidene)cyclohexa-2,5-dienone (7-Cinn-QM), was determined using the static method whereby a 0.31 mM (0.33 mmolal) solution of the retarder was prepared in inhibitor-free styrene. To start with, 4-tert-butylcatechol (TBC) was removed by eluting styrene through alumina. To prepare a 0.31 mM solution of 7-Cinn-QM, 0.0264 g were dissolved in freshly de-inhibited styrene to give a solution of 250 grams. Into twenty-four Ace Glass #15 threaded pressure tubes equipped with PTFE screw caps and fluoroelastomer (FETFE) O-rings, 9 mL of the solution were charged into each tube. To purge as much oxygen out of the solutions as possible, each solution was sparged with nitrogen for 2 minutes. Immediately after sparging each solution, the tube was sealed and the solution kept under a nitrogen gas overhead. […] After 30 minutes, and every 15 minutes thereafter, four tubes were retrieved from the block and the polymerization reaction quenched by cooling in an ice bath. The cooled polymer solutions were immediately diluted with toluene.
To measure the amount of polymer formed, methanol was used to precipitate the polymer in accordance with the ASTM D2121 method. The absorbance of the polymer-methanol admixtures were measured at 420 nm. Using a calibration curve, the polymer concentrations in each of the tubes was measured and the four data points for each time were averaged.
For comparative purpose, 0.0243 g of 7-Ph-QM were dissolved in 350 g of inhibitor-free styrene after which the antipolymerant performance was tested according to the procedure in Example 3.
Similarly, a styrene solution comprising 0.155 mmolal of 7-Ph-QM and 0.155 mmolal of 7-Cinn-QM was used to screen the performance of the combination in accordance with the procedure in Example 3.

CC(C)(C)C1=CC(=CC=Cc2ccccc2)C=C(C(C)(C)C)C1=O [7-Cinn-QM, 2,6-di-tert-butyl-4-(3-phenylallylidene)cyclohexa-2,5-dienone]
Polystyrene (%) (Time 30): 0.05%
Polystyrene (%) (Time 45): 0.20%
Polystyrene (%) (Time 60): 0.41%
Polystyrene (%) (Time 75): 0.88%
Polystyrene (%) (Time 90): 1.54%
Polystyrene (%) (Time 105): 3.39%
Polystyrene (%) (Time 120): 5.13%
Polystyrene (%) (Time 135): 7.07%

7-Phenyl Quinone Methide [7-Ph-QM]
Polystyrene (%) (Time 30): 0.13%
Polystyrene (%) (Time 45): 0.49%
Polystyrene (%) (Time 60): 0.89%
Polystyrene (%) (Time 75): 1.08%
Polystyrene (%) (Time 90): 1.37%
Polystyrene (%) (Time 105): 1.56%
Polystyrene (%) (Time 120): 2.4%
Polystyrene (%) (Time 135): 3.4%
